Laboratory results: publication PMC6949113, “Preclinical evaluation of AT-527, a novel guanosine nucleotide prodrug with potent, pan-genotypic activity against hepatitis C virus” (PLoS ONE, 2020)
Values joined by “and” are separate entries in the source; they are usually repeats but may differ in a detail not shown here. Identical values can stand only once. Marks after values point to notes of the source that are not given here.

Legend:
[1] = Intracellular metabolism in human hepatocytes; format: in vitro ADME; details: human hepatocytes
Description: (§1) Hepatocytes. […] Cryopreserved male mouse (CD1), and fresh male Beagle dog and male cynomolgus monkey hepatocytes were obtained from BioreclamationIVT (Baltimore, MD) and were similarly plated with Matrigel in 6- or 24-well plates and maintained overnight in InVitroGRO™HI medium with Torpedo™ antibiotic (BioreclamationIVT). The protocol described above for measuring AT-511 and its metabolites in Huh-7 cells was repeated with the five different hepatocytes. Untreated cells were collected at 24 h, and the protein content of the cell lysates were determined using a bicinchoninic acid protein assay kit to assess the number of cells in each incubation. Separately, plated human hepatocytes were incubated for 6 h with 100 μM AT-511, followed by washout periods of 0, 2, 6, 18 and 30 h.
(§2) S3 Protocol. LC-MS/MS analysis of AT-511 and metabolites in cultured cells. The supernatant extracts of each hepatocyte and Huh-7 cell incubation were separately analyzed by four different LC-MS/MS methods for quantitation of phosphoramidates, nucleosides, monophosphates, and triphosphates (methods 1, 2, 3 and 4, respectively), using synthetic reference standards of actually and potentially present compounds and using structurally related analogs as internal standards. Briefly, a Luna PFP (2), 5 µm, 100 x 4.6 mm column and an AB Sciex API-6500 mass spectrometer (ESI positive ion, MRM mode) were used for methods 1-3 and an XBridge Oligonucleotide, BEH C18, 2.5 µm, 50 x 2.1 mm column and a Thermo QE Plus mass spectrometer (electrospray, negative ion mode) were used for method 4. For methods 1 and 2, mobile phases A (10 mM ammonium acetate in water) and B (acetonitrile:methanol, 1:1, v/v) were used to elute samples (5 µL) at 1 mL/min with 15% B for 1.5 min followed by a linear gradient to 75% B over 1 min (method 1) or with 54% B for 1.3 min followed by a linear gradient to 90% B over 1.2 min. Method 3 was the same except mobile phase A was 0.3% acetic acid in water, […] and samples were eluted with 3% B for 3 min followed by a linear gradient to 55% B over 1.2 min. For method 4, mobile phase A (3 mM ammonium formate with 10 mM dimethylhexylamine (DMHA) in water) and mobile phase B (3 mM ammonium formate with 10 mM DMHA in acetonitrile:water, 1:1, v/v) were used to elute samples at 0.4 mL/min with 0% B for 1.5 min followed by a linear gradient to 100% B over 2 min and ending with an isocratic elution for 0.5 min at 100% B.

[2] = Intracellular metabolism in mouse hepatocytes; format: in vitro ADME, mouse (CD1)
Description: as §1, §2

[3] = Intracellular metabolism in dog hepatocytes; format: in vitro ADME, Beagle dog
Description: as §1, §2

[4] = Monkey PK study, liver and heart tissue levels; format: in vivo, cynomolgus monkey; details: monkey; for Mean Concentration at 4 hr Postdose, Heart: footnoted values extrapolated below LLOQ
Source text: Monkey PK study. Male non-naïve cynomolgus monkeys were obtained from Hainan Jingang Laboratory Animal Co., Ltd. (Hainan, China), group housed during the 5-day acclimation period or individually housed during the study in stainless steel mesh cages, provided ad libitum access to RO water, fed twice daily (~120 g Certified Monkey Diet daily; Beijing Vital Keao Feed Co., Ltd., Beijing, China) and given daily treats of fresh fruit. Additional environmental enrichment included classical music and cartoons. Three groups of 5 monkeys each were administered 30, 100 or 300 mg/kg AT-527 as a powder filled in empty porcine hard gelatin capsules (size 0). The monkeys were fasted overnight prior to dosing and fed 4 h after dosing. Three dosages were selected to provide assessments of dose proportionality, the top two representing potential doses for a repeated oral dose toxicity study in monkeys, and the lowest predicted to be more therapeutically relevant. A pill gun was used to place the capsule beyond the root of the animals’ tongues and their mouths were held loosely closed for approximately 30 sec to allow them to move the jaw and swallow the capsule. Immediately following capsule administration, 20 mL of water was given by mouth and then the mouth was opened to ensure the capsule was swallowed. Blood samples (~0.6 mL) were collected up to 72 h from three animals per dose group, and up to 4 h from the remaining two animals in each group, at the same time points described for rats. […] Blood samples were collected with a syringe from a peripheral blood vessel from restrained, non-sedated animals, immediately transferred to pre-chilled tubes containing ~1 mg K2EDTA•2H20 and 20 μL of 5 mM dichlorvos solution, mixed and placed on ice until plasma was prepared by centrifugation as described for rats. Immediately after centrifugation, plasma samples were extracted with 4 volumes ISS2, and the supernatants were clarified by centrifugation (12,000 rpm, 10 min, 4°C) and stored at ≤ -60°C until analyzed by LC-MS/MS as described below. After the 4-hr blood collection, two monkeys per dose group were anesthetized with intravenous injection of pentobarbital sodium (60 mg/kg) and then euthanized as described for rats. […] All analytes were quantitated by LC-MS/MS as described below.
For the analysis of AT-9010 in rat tissue homogenate supernatant, aliquots were diluted 1:2 with water and injected onto an Agilent Zorbax Extend C18 5 μm, 2.1 × 50 mm column and a Sciex API 4000 mass spectrometer (ESI positive ion, MRM mode). Mobile phases A (0.001% ammonia and 0.18 mM DBAA in water (1:1, v/v) and B (10 mM dimethylhexylamine (DMHA) and 3 mM AA in 50% ACN in water) were used to elute samples (60 μL) at 0.7 mL/min with 2% B for 0.8 min followed by a linear gradient to 30% B over 0.4 min, isocratic elution at 30% B for 0.4 min, a linear gradient to 95% B over 0.4 min, and ending with 95% B for 0.4 min. The analysis of AT-9010 in monkey tissue homogenate supernatant was the same except the sample injection volume was 20 μL. Attempts to measure tissue levels of other potentially formed TPs, including 2,6-diaminopurine-2’-F-2’-C-methylribosyl-5’-triphosphate and 2-amino-6-methylaminopurine-2’-F-2’-C-methylribosyl-5’-triphosphate (M2-TP), also used this method.
For the analysis of M2 and M3 in monkey tissue homogenate supernatant, aliquots were diluted 1:3 with water and injected onto an Acuity HSS T3 1.8 μm, 2.1 × 50 mm column and a Sciex API 6500 mass spectrometer (ESI positive ion, MRM mode). Mobile phases A (0.3% FA and 10 mM AA in water and B (0.3% FA and 10 mM AA in 95% ACN in water) were used to elute samples (1 μL) at 0.6 mL/min with 0% B for 0.4 min followed by linear gradients to 30% B over 0.5 min and to 95% B over 0.2 min, ending with isocratic elution at 95% B for 0.4 min.

C[C@@]1(F)[C@H](O)[C@@H](CO)O[C@H]1n1cnc2c(=O)[nH]c(N)nc21 [AT-273]
intracellular levels of nucleoside metabolites ([1]; low to undetectable): < 10 pmol/10^6 cells | intracellular levels of nucleoside metabolites ([2]; low to undetectable): < 10 pmol/10^6 cells | intracellular levels of nucleoside metabolites ([3]; low to undetectable): < 10 pmol/10^6 cells | Mean Concentration at 4 hr Postdose, Liver ([4]; AT-527 30 mg/kg oral): 267 pmol/g | Liver/Heart Ratio ([4]; AT-527 30 mg/kg oral, 4 h): 3.0 | Mean Concentration at 4 hr Postdose, Heart ([4]; AT-527 30 mg/kg oral): 88.5 pmol/g | Mean Concentration at 4 hr Postdose, Liver ([4]; AT-527 100 mg/kg oral): 672 pmol/g | Liver/Heart Ratio ([4]; AT-527 100 mg/kg oral, 4 h): 2.9 | Mean Concentration at 4 hr Postdose, Heart ([4]; AT-527 100 mg/kg oral): 229 pmol/g | Mean Concentration at 4 hr Postdose, Liver ([4]; AT-527 300 mg/kg oral): 939 pmol/g | Liver/Heart Ratio ([4]; AT-527 300 mg/kg oral, 4 h): 2.1 | Mean Concentration at 4 hr Postdose, Heart ([4]; AT-527 300 mg/kg oral): 444 pmol/g

C[C@@]1(F)[C@H](O)[C@@H](COP(=O)(O)OP(=O)(O)OP(=O)(O)O)O[C@H]1n1cnc2c(=O)[nH]c(N)nc21 [AT-9010]
AUC0-24, intracellular ([1]; 10 μM AT-511): 1363 pmol*h/10^6 cells | Cmax, intracellular ([1]; 10 μM AT-511, 0-24 h): 69.2 ± 8.8 pmol/10^6 cells | AUC0-24, intracellular ([2]; 10 μM AT-511): 1177 pmol*h/10^6 cells | Cmax, intracellular ([2]; 10 μM AT-511, 0-24 h): 85.4 ± 0.4 pmol/10^6 cells | AUC0-24, intracellular ([3]; 10 μM AT-511): 229 pmol*h/10^6 cells | Cmax, intracellular ([3]; 10 μM AT-511, 0-24 h): 15.4 ± 6.6 pmol/10^6 cells | fold higher mean liver concentration than parent phosphoramidate ([4]; 30 mg/kg, 4 h): 34 fold | Mean Concentration at 4 hr Postdose, Liver ([4]; AT-527 30 mg/kg oral): 545 ± 349 pmol/g and 545 pmol/g | Liver/Heart Ratio ([4]; AT-527 30 mg/kg oral, 4 h): 11^b | Mean Concentration at 4 hr Postdose, Heart ([4]; AT-527 30 mg/kg oral): 51.2^b pmol/g | Mean Concentration at 4 hr Postdose, Liver ([4]; AT-527 100 mg/kg oral): 1890 ± 519 pmol/g and 1890 pmol/g | Liver/Heart Ratio ([4]; AT-527 100 mg/kg oral, 4 h): 31^b | Mean Concentration at 4 hr Postdose, Heart ([4]; AT-527 100 mg/kg oral): 61.8^b pmol/g | Mean Concentration at 4 hr Postdose, Liver ([4]; AT-527 300 mg/kg oral): 968 pmol/g | Mean Concentration at 4 hr Postdose, Heart ([4]; AT-527 300 mg/kg oral): 55.3^b pmol/g
